Experimental data reported in patent US6815542B2 (priority 2000, dated 2004).

How the values were obtained:
[1] = Oral administration in rats over four weeks (clinical pathology); format: in vivo; conditions: 180 mg/kg over four weeks
Source text: Furthermore, it is contemplated that treatment of a viral disease with Levovirin is predominantly based on the modulation of the Th1/Th2 balance towards a Th1 dominated response, and not predominantly based on a direct antiviral effect. The term “direct antiviral” effect or activity as used herein refers to an immediate effect or activity of a drug on viral assembly or replication. In contrast, a reduction of viral activity or replication that is at least in part mediated by one or more components of the immune system is not considered a “direct antiviral” effect or activity. Likewise, it should be appreciated that a relative reduction of the Th2 response during a treatment may be especially advantageous in diseases that are correlated with an increased Th2 response (e.g., HCV infection).

[2] = system: IMP dehydrogenase; conditions: cited from earlier work
[3] = system: ten different viruses; conditions: compared with Ribavirin; cited from earlier work
[4] = preliminary toxicology studies; cited from earlier work

NC(=O)c1ncn([C@H]2O[C@@H](CO)[C@H](O)[C@@H]2O)n1 [Levovirin]
clinical pathology after oral administration [1]: did not produce any observable clinical pathology

NC(=O)c1ncn([C@@H]2O[C@H](CO)[C@@H](O)[C@H]2O)n1 [Ribavirin, 1-β-D-ribofuranosyl-1,2,4-triazole-3-carboxamide]
clinical pathology after oral administration [1]: significant hemolytic anemia and leukopenia | inhibition of IMP dehydrogenase [2]: inhibitor of IMP dehydrogenase

N=C(N)c1ncn([C@@H]2O[C@H](CO)[C@@H](O)[C@H]2O)n1 [Viramidine]
antiviral activity [3]: active in ten different viruses—comparable to Ribavirin | inhibition of IMP dehydrogenase [2]: inhibitor of IMP dehydrogenase | toxicity relative to Ribavirin [4]: less toxic than Ribavirin
